Data published in ChEMBL document CHEMBL4152326 (2018).

Tests used:
Assay type in all cases: functional
[1] = test system: Stenotrophomonas maltophilia; experiment: Antimicrobial activity against L-1 producing Stenotrophomonas maltophilia SR21970 in presence of human apo-transferrin by broth microdilution method
[2] = test system: Pseudomonas aeruginosa; experiment: Antimicrobial activity against IMP-1 producing Pseudomonas aeruginosa SR27001 in presence of human apo-transferrin by broth microdilution method
[3] = test system: Escherichia coli; experiment: Antimicrobial activity against SHV-4 producing Escherichia coli ATCC BAA-200 in presence of human apo-transferrin by broth microdilution method
[4] = test system: Pseudomonas aeruginosa; experiment: Antimicrobial activity against VIM-2 producing Pseudomonas aeruginosa SBRKM-28 in presence of human apo-transferrin by broth microdilution method
[5] = test system: Pseudomonas aeruginosa; experiment: Antimicrobial activity against Pseudomonas aeruginosa SR24 in presence of human apo-transferrin by broth microdilution method
[6] = test system: Klebsiella pneumoniae; experiment: Antimicrobial activity against KPC-2 producing Klebsiella pneumoniae ATCC BAA-1705 in presence of human apo-transferrin by broth microdilution method
[7] = test system: Pseudomonas aeruginosa; experiment: Antibacterial activity against Pseudomonas aeruginosa SR27001 infected in Jcl:ICR mouse systemic infection model assessed as increase in mouse survival rate administered iv 1 to 5 hrs post infection measured over 7 days
[8] = test system: Pseudomonas aeruginosa; experiment: Antimicrobial activity against AmpC overproducing Pseudomonas aeruginosa SR24-12 in presence of human apo-transferrin by broth microdilution method
[9] = test system: Pseudomonas aeruginosa; experiment: Antimicrobial activity against IMP-1 producing Pseudomonas aeruginosa SR27060 in presence of human apo-transferrin by broth microdilution method
[10] = test system: Pseudomonas aeruginosa; experiment: Antimicrobial activity against Pseudomonas aeruginosa 27060deltaR1 harboring deletion of R1 plasmid in presence of human apo-transferrin by broth microdilution method
[11] = test system: Acinetobacter baumannii; experiment: Antimicrobial activity against OXA-23/OXA-58 producing Acinetobacter baumannii SR27323 in presence of human apo-transferrin by broth microdilution method

SMILES | MIC [1] [µg/mL] | MIC [2] [µg/mL] | MIC [3] [µg/mL] | MIC [4] [µg/mL] | MIC [5] [µg/mL] | MIC [6] [µg/mL] | ED50 [7] [mg/kg] | MIC [8] [µg/mL] | MIC [9] [µg/mL] | MIC [10] [µg/mL] | MIC [11] [µg/mL]
CC(C)(O/N=C(\C(=O)N[C@@H]1C(=O)N2C(C(=O)[O-])=C(C[N+]3(CCNC(=O)c4cc(=O)c(O)cn4O)CCCC3)CS[C@H]12)c1csc(N)n1)C(=O)O | 0.125 | 4 | 1 | 0.063 | 0.125 | 0.063 | > 30 | 0.5 | 4 | 1 | 0.5
CO/N=C(\C(=O)N[C@@H]1C(=O)N2C(C(=O)[O-])=C(C[N+]3(C)CCCC3)CS[C@H]12)c1csc(N)n1 | 64 | > 64 | 4 | 16 | 0.5 | 32 | > 100 | 16 | > 64 | 16 | 16
CC(C)(O/N=C(\C(=O)N[C@@H]1C(=O)N2C(C(=O)[O-])=C(C[N+](C)(C)[C@@H]3CCN(C(=O)c4ccc(O)c(O)c4Cl)C3)CS[C@H]12)c1csc(N)n1)C(=O)O | 1 | 2 | 2 | 0.25 | 0.25 | 0.25 | 5.48 | 0.5 | 2 | 1 | 1
Nc1nc(/C(=N/OCC(=O)O)C(=O)N[C@@H]2C(=O)N3C(C(=O)[O-])=C(C[N+]4(CCNC(=O)c5ccc(O)c(O)c5Cl)CCCC4)CS[C@H]23)cs1 | 1 | 2 | 32 | 0.125 | 0.125 | 0.25 | 9.84 | 0.5 | 4 | 2 | 0.5
CC(C)(O/N=C(\C(=O)N[C@@H]1C(=O)N2C(C(=O)[O-])=C(C[N+]3(CCNC(=O)c4ccc(O)c(O)c4F)CCCC3)CS[C@H]12)c1csc(N)n1)C(=O)O | 0.25 | 2 | 0.5 |  | 0.125 | ≤ 0.031 | 5.48 | 0.125 | 1 | 1 | 0.5
CC(C)(O/N=C(\C(=O)N[C@@H]1C(=O)N2C(C(=O)[O-])=C(C[N+]3(CCNC(=O)c4ccc(O)c(O)c4Cl)CCCC3)CS[C@H]12)c1nc(N)sc1Cl)C(=O)O | 2 | 1 | 1 | 0.125 | 0.25 | 0.063 |  | 0.5 | 1 | 1 | 2
CC(C)(O/N=C(\C(=O)N[C@@H]1C(=O)N2C(C(=O)[O-])=C(C[n+]3ccc(NC(=O)c4ccc(O)c(O)c4Cl)cc3)CS[C@H]12)c1csc(N)n1)C(=O)O | 1 | 2 | 2 | 0.125 | 0.063 | 0.25 |  | 0.25 | 2 | 0.5 | 2
CC(C)(O/N=C(\C(=O)N[C@@H]1C(=O)N2C(C(=O)[O-])=C(C[N+]3(CCC(=O)Nc4ccc(O)c(O)c4Cl)CCCC3)CS[C@H]12)c1csc(N)n1)C(=O)O | 1 | 2 | 2 | 0.25 | 0.25 | 0.25 |  | 0.5 | 2 | 1 | 2
Nc1nc(/C(=N/O[C@@H](CC(=O)O)C(=O)O)C(=O)N[C@@H]2C(=O)N3C(C(=O)[O-])=C(C[N+]4(CCNC(=O)c5ccc(O)c(O)c5Cl)CCCC4)CS[C@H]23)cs1 | 0.25 | 1 | 1 | 0.063 | 0.25 | 0.063 |  | 0.25 | 1 | 0.5 | 1
CC(C)(O/N=C(\C(=O)N[C@@H]1C(=O)N2C(C(=O)[O-])=C(C[N@+]3(C)[C@@H]4CC[C@H]3C[C@@H](NC(=O)c3ccc(O)c(O)c3Cl)C4)CS[C@H]12)c1csc(N)n1)C(=O)O | 1 | 0.5 | 2 | 0.063 | 0.25 | 0.063 | 10.5 | 0.5 | 1 | 0.5 | 1
